Results taken from publication PMC7901650, “Garcinoic Acid Is a Natural and Selective Agonist of Pregnane X Receptor” (Journal of Medicinal Chemistry, 2020).

What was measured:
[1] = molecular target: T1, FXR (Homo sapiens, UniProt Q96RI1); assay: AlphaScreen nuclear receptor panel, FXR; type: biochemical
T1 construct: GST-LBD
T1 sequence (Q96RI1 262-486 limits assumed): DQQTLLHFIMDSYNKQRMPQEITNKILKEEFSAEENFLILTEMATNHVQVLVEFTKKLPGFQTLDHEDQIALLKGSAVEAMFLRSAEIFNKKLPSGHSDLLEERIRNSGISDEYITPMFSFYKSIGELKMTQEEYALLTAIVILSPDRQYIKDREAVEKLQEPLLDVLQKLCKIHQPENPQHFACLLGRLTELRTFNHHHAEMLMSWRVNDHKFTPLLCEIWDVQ
Text: (§1) Ligand binding activity of GA (1) was explored via AlphaScreen technology over a panel of NRs that, along with hPXR (Figure 1A), included major human endocrine and metabolic receptors, such as the retinoid X receptor (RXR), constitutive androstane receptor (CAR), farnesoid X receptor (FXR), vitamin D receptor (VDR), liver X receptor (LXR) forms α and β, and the PPAR isoforms α, δ, and γ (see Figure S1). GA (1) was compared to its analogue δ-tocotrienol (5), the vitamers 3 and 4, their short-chain metabolites (SCMs) α-CEHC (10) and γ-CEHC (11), and the LCMs 2 and 8 (Chart 1). The test was performed in the presence of reference standard agonists for the different NRs.
(§2) The activity of nuclear receptors was determined using AlphaScreen technology, a recruitment coactivator assay previously described.[56]
(§3) (A) The test was carried out at 10 μM compound final concentration. Ligand binding to nuclear receptors was expressed as luminescence units. […] Vehicle was assessed to obtain a measure of background signal (basal evaluation). […] In presence of the ligand, the nuclear receptor LBD undergoes conformational changes, binds to the coactivator and the chemical energy is transferred from donor to acceptor beads in order to produce a signal, i.e. luminescence; in this case the compounds behaves as agonist, changing the conformation of the receptor to recruit the coactivator. […]

[2] = molecular target: T2, LXRβ receptor (Homo sapiens, UniProt P55055); assay: AlphaScreen nuclear receptor panel, LXRβ; type: biochemical
T2 construct: GST-LBD
T2 sequence (P55055 222-460 limits assumed): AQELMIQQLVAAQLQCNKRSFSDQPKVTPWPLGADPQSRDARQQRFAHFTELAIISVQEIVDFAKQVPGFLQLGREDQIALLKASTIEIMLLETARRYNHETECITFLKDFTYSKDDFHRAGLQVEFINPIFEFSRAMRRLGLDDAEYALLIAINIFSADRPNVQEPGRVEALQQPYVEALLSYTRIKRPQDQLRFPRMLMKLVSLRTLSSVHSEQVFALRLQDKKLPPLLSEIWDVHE
Text: as §1, §2, §3

[3] = tested on: PPARs; assay: AlphaScreen nuclear receptor panel, PPARs; type: biochemical, human
Text: as §1, §2, §3

## C/C(=C\CC/C(C)=C/CC[C@]1(C)CCc2cc(O)cc(C)c2O1)CC/C=C(\C)C(=O)O [GA (1), (2E,6E,10E)-13-[(2R)-6-hydroxy-2,8-dimethyl-chroman-2-yl]-2,6,10-trimethyltrideca-2,6,10-trienoic acid]
[1]
  Response on FXR: No response
[2]
  Agonist activity at LXRβ: low activity
[3]
  Response on PPARs: No response
